Assay [1] concerns the target Eukaryotic translation initiation factor 4E (Mus musculus, UniProt P63073). The experiment in a line: eIF4E–eIF4G protein interaction inhibitors, dose response, biochemical, TR-FRET (AID 855).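 Note: potency for disrupting eIF4E binding to eIF4GI seen as loss of FRET.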 In kind it is functional. For orientation: Time-resolved FRET reads energy transfer from a long-lived donor to a nearby acceptor.
The target of assay [2] is Peroxisome proliferator-activated receptor gamma/Nuclear receptor coactivator 3 (Homo sapiens, UniProt P37231). In kind it is functional.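 Note: agonist potency for raising coactivator recruitment to the receptor.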
Sequence of Peroxisome proliferator-activated receptor gamma/Nuclear receptor coactivator 3 (P37231 whole entry): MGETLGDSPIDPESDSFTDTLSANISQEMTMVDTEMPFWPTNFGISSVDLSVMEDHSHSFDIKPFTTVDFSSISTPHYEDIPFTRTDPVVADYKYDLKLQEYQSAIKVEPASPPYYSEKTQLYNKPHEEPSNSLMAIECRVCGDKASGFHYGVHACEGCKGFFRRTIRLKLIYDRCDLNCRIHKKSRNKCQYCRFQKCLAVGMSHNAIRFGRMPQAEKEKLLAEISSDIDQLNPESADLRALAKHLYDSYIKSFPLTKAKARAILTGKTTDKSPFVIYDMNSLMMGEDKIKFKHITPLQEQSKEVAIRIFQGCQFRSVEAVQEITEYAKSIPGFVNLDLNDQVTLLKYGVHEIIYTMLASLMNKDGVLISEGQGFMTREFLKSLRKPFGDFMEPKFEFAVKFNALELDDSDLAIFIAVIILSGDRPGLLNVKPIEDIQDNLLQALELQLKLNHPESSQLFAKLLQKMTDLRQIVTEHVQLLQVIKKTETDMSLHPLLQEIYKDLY
Sequence of Peroxisome proliferator-activated receptor gamma/Nuclear receptor coactivator 3 (Q9Y6Q9 whole entry, further chain): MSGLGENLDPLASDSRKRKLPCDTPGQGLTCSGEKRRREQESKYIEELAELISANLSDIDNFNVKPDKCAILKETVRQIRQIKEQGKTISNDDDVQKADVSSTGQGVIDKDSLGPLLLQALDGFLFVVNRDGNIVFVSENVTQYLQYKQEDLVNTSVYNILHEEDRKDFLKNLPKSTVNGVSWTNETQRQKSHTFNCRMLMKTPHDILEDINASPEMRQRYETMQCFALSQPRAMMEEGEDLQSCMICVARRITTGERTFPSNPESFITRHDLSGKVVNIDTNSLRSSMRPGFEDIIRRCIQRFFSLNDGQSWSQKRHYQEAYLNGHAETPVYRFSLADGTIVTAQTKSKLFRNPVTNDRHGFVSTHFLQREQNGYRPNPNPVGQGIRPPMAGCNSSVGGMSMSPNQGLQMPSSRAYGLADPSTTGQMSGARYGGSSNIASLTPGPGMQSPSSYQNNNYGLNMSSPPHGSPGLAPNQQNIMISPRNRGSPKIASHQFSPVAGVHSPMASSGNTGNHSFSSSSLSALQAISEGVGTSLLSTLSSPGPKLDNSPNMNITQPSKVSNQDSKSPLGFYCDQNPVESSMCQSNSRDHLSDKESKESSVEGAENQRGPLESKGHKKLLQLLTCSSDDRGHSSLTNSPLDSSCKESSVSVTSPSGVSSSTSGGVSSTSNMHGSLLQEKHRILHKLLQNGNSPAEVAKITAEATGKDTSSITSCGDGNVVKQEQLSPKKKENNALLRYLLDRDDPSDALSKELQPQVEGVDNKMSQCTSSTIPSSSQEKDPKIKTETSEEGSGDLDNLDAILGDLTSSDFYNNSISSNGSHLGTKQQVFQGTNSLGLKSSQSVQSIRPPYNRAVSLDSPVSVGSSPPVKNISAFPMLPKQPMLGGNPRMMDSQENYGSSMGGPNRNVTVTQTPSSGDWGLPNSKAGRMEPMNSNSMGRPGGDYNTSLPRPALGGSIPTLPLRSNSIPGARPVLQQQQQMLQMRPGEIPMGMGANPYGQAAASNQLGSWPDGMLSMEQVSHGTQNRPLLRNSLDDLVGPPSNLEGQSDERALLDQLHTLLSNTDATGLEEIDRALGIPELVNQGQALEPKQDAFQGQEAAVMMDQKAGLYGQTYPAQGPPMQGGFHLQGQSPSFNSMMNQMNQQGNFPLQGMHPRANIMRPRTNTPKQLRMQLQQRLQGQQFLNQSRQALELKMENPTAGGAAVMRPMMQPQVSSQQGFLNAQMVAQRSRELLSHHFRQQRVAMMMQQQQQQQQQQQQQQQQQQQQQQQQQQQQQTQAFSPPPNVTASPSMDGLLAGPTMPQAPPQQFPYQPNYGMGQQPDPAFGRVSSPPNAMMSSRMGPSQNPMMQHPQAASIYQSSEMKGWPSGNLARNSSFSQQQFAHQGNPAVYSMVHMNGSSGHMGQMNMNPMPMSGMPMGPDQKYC
The target in assay [3] is Peroxisome proliferator-activated receptor gamma/Nuclear receptor coactivator 2 (Homo sapiens, UniProt P37231). In kind it is functional.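 Note: agonist potency for raising coactivator recruitment to the receptor.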
For assay [4], the target named is Peroxisome proliferator-activated receptor gamma/Nuclear receptor coactivator 1 (Homo sapiens, UniProt P37231). In kind it is functional.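 Note: agonist potency as compounds enhance coactivator SRC-1 recruitment to PPARgamma.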
Sequence of Peroxisome proliferator-activated receptor gamma/Nuclear receptor coactivator 1 (P37231 whole entry): as the sequence (P37231 whole entry) above
Sequence of Peroxisome proliferator-activated receptor gamma/Nuclear receptor coactivator 1 (Q15788 whole entry, further chain): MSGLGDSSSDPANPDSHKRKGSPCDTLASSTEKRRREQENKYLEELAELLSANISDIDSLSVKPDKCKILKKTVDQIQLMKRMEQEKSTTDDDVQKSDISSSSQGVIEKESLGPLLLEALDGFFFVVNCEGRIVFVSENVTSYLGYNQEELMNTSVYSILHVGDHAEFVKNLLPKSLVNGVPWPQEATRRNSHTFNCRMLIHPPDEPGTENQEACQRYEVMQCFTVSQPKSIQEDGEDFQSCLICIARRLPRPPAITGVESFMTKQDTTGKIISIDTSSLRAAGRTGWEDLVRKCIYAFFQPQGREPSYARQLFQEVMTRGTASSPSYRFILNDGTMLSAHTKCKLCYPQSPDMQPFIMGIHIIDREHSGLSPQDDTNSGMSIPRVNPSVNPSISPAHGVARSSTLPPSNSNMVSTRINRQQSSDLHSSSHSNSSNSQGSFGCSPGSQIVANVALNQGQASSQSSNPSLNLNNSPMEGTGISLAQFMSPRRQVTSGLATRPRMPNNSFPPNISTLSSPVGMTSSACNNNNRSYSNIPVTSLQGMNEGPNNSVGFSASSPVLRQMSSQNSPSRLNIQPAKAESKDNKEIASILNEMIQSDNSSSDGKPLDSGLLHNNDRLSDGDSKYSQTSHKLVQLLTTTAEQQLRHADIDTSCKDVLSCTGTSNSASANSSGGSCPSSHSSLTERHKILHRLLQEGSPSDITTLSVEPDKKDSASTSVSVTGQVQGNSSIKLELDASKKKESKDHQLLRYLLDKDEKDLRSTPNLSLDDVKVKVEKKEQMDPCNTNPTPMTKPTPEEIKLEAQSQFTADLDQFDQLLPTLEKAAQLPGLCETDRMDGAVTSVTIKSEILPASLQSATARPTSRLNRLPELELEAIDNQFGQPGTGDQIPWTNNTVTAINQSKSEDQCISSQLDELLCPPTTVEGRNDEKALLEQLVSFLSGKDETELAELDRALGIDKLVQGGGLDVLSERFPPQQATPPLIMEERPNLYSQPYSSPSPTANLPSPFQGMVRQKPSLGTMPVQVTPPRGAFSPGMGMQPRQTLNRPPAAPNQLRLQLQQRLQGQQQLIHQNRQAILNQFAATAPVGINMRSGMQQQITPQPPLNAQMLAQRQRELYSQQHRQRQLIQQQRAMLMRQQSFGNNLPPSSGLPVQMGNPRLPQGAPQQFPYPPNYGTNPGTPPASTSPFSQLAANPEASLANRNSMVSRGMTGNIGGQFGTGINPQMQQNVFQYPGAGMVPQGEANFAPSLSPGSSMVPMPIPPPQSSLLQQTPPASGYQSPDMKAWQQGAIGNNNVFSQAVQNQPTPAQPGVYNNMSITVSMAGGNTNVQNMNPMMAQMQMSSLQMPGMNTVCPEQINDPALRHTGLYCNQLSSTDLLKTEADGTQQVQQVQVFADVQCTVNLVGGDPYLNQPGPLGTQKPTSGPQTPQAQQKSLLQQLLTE
Assay [5] addresses T1, Calpain-2 catalytic subunit (Sus scrofa, UniProt P43367).
T1 sequence (P43367 whole entry): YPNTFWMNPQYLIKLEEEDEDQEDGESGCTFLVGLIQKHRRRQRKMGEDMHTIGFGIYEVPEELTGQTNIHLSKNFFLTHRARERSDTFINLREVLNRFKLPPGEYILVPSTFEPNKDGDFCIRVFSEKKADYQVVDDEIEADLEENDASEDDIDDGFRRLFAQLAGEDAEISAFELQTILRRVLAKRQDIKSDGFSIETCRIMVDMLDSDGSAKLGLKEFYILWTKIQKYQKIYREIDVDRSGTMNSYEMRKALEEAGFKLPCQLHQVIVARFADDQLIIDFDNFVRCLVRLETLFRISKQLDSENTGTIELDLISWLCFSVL
The experiment in a line: pig calpain II inhibitor potency, dose response, biochemical, fluorogenic peptide substrate (AID 1420). The class given is functional.

The subject of a further assay is J774.A1. Kind of assay: Confirmation of image-based Screening Assay for Inhibitors of Phagocytosis. [Related pubchem assays (depositor defined):AID1029, AID1643]. The class given is functional, cell-based. The following applies: Mus musculus.
A short description of assay [6]: cytotoxicity in HEK-293T cells, dose response, cytotoxicity control for TCR NF-kB inhibitor project, luminescence, T-cell screen hits (AID 489026).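 Note: cells exposed to compound about 14 hours before the viability readout.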 The class given is functional, cell-based.
Another assay concerns the target T2, Aminopeptidase N (Plasmodium falciparum FcB1/Columbia, UniProt O96935).
T2 sequence (O96935 whole entry): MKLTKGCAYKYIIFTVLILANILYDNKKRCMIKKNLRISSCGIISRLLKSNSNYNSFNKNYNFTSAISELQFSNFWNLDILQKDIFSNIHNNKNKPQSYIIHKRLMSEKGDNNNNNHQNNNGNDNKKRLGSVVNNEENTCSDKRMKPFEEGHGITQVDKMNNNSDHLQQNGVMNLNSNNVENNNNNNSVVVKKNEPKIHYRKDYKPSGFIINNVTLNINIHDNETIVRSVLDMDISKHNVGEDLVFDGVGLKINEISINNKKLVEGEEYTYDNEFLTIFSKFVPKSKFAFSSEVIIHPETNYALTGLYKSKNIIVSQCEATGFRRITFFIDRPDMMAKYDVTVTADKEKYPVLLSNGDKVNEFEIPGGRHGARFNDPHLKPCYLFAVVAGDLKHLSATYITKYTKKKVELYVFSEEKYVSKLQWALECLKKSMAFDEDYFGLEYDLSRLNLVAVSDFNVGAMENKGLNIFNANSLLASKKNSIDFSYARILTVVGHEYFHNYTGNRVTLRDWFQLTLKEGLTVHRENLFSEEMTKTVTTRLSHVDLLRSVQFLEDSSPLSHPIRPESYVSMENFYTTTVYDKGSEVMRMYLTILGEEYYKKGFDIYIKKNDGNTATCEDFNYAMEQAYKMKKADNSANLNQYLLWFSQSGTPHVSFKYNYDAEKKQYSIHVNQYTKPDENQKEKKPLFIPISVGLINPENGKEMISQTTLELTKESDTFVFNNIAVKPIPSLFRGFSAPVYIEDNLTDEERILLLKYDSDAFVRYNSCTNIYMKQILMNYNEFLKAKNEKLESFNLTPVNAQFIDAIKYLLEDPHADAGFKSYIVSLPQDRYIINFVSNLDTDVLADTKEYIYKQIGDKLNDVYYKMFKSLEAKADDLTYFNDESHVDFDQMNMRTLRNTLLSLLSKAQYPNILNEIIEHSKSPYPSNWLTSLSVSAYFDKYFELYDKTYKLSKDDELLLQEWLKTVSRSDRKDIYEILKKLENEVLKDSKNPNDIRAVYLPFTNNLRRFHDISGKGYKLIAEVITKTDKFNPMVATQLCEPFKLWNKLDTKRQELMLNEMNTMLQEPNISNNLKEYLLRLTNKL
The experiment in a line: P. falciparum M1AAP inhibitors, biochemical, fluorogenic H-Leu-NHMec substrate, 1536-well (AID 1445). Details: species or system Plasmodium falciparum 3D7, 3D7.

Assay [7] in a line: microbe, parasite or virus in culture. In kind it is functional. The settings on record: Mycobacterium tuberculosis.
Assay [8] deals with Dual specificity protein phosphatase 3 (Homo sapiens, UniProt P51452). The experiment in a line: Dose Response Confirmation of compounds that inhibit VHR1 in Fluorescent Assay. [Related pubchem assays (depositor defined):AID1661, AID1878]. In kind it is functional.
Sequence of Dual specificity protein phosphatase 3 (P51452 whole entry): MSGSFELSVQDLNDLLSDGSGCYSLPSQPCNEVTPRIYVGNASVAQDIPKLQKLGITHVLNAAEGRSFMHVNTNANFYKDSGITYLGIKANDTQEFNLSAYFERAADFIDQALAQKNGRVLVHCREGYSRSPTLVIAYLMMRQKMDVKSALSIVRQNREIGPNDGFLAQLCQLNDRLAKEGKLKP
The target of another assay is T3, Leucine aminopeptidase (Plasmodium falciparum 3D7, UniProt Q8IL11).
T3 sequence (Q8IL11 whole entry): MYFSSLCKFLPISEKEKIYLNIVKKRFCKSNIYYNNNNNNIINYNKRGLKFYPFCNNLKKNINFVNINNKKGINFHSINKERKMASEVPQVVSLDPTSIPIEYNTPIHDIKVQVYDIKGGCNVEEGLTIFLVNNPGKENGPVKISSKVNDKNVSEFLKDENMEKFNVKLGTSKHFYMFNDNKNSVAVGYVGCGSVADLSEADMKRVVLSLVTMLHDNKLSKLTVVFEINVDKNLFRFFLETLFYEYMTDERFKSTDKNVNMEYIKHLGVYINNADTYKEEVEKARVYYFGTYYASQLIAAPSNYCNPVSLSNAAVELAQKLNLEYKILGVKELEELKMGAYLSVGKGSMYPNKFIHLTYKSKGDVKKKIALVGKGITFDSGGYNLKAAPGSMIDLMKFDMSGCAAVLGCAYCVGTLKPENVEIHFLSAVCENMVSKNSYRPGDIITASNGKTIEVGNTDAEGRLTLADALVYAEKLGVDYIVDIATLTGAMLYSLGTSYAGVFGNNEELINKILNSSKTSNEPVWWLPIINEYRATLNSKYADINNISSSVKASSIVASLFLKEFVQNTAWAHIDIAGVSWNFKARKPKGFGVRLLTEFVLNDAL
The experiment in a line: P. falciparum M17LAP inhibitors, primary screen, biochemical, fluorogenic H-Leu-NHMec substrate, 1536-well (AID 1619). The class given is functional.

The target in assay [9] is Tyrosine-protein phosphatase non-receptor type 7 (Homo sapiens, UniProt P35236). The experiment in a line: Dose Response confirmation of compounds that inhibit HePTP. [Related pubchem assays (depositor defined):AID1059, AID1661, AID2085]. The class given is functional.
Assay [10] addresses DNA dC->dU-editing enzyme APOBEC-3A (Homo sapiens, UniProt P31941). The experiment in a line: APOBEC3A DNA deaminase inhibitors, dose response, biochemical (AID 504722). The class given is functional.
The target in assay [11] is DNA dC->dU-editing enzyme APOBEC-3G (Homo sapiens, UniProt Q9HC16). The experiment in a line: Dose Response confirmation of small molecule APOBEC3G DNA Deaminase Inhibitors via a fluorescence-based single-stranded DNA deaminase assay. [Related pubchem assays (depositor defined):AID493012, AID493028]. In kind it is functional.
Sequence of DNA dC->dU-editing enzyme APOBEC-3G (Q9HC16 whole entry): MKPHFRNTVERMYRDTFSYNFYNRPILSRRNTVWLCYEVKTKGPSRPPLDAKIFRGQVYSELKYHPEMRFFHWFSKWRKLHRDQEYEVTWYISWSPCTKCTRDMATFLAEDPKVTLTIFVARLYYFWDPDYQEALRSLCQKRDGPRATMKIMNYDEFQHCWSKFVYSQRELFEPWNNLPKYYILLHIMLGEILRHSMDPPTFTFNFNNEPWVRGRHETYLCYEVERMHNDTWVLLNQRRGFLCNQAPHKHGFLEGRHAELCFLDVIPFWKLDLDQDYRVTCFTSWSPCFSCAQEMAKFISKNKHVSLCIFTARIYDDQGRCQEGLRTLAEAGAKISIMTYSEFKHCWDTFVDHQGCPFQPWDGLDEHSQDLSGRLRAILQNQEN
The subject of a further assay is Trypanosoma cruzi. The experiment in a line: growth inhibition of intracellular Trypanosoma cruzi, dose response, cell-based, plate reader, dry powder, set 3 (AID 493197). In kind it is functional.
Assay [12] in a line: cytotoxicity in NIH/3T3 mouse fibroblasts, dose response, cytotoxicity control, cell-based, mouse embryonic fibroblasts, dry powder, set 2 (AID 493247). The settings on record: Fibroblast. The class given is functional.

SMILES strings stand for the structures. Activity calls are given as the source filed them.

Sequence of DNA dC->dU-editing enzyme APOBEC-3A (P31941 whole entry): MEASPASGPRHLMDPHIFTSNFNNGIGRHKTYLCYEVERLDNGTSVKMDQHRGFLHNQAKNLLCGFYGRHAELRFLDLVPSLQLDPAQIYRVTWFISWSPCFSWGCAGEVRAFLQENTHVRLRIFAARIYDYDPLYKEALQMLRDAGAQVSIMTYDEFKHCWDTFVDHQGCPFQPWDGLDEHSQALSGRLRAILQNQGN
Sequence of Eukaryotic translation initiation factor 4E (P63073 whole entry): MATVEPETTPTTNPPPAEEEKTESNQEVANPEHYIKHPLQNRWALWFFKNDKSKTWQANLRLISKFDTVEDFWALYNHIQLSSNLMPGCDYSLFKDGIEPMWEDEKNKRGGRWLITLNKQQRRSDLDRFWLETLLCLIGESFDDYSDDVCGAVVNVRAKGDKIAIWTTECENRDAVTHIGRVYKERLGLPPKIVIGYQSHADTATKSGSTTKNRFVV

One may read the IC50 as the concentration at which inhibition is half-maximal. The term EC50 denotes the midpoint of the concentration-response curve. Read a high EC50 as a less potent agent. Regarding `NS(=O)(=O)c1ccc(NC(=S)NCc2ccc(Cl)cc2)cc1`, the IC50 is > 64 µM (inactive) in assay [1] and 9.36 µM (not active) in assay [5]. Further, the EC50 in [2], in assay [3] and in [4] was > 79.4 µM (not active) in each case.

For the compound `CCOc1ccc2c(c1)sc(N)[n+]2Cc1cc(C)cc2cccnc12`, the half-inhibitory concentration (IC50) was 0.229 µM (active) in the assay with J774.A1 and > 80 µM (inactive) in [6].

Regarding `Cc1csc(NC(=O)CCCC(=O)O)c1-c1nc2ccccc2s1`, the IC50 is 11.2 µM (active) on Aminopeptidase N, 2.67 µM (active) in assay [8], 35.4 µM (active) at Leucine aminopeptidase and 3.28 µM (active) in assay [9]. The CC50 in assay [7] was > 40 µM (active).

With `Cc1ccc(-n2c(-c3ccco3)n[nH]c2=S)cc1`, the IC50 in assay [10] is > 100 µM (inactive); in assay [11] it was 4.57 µM (active).

What is called AC50 is the concentration at which the activity in the assay is half-maximal. With `O=C(CCC(=O)Nc1ccccc1)N/N=C/c1ccc([N+](=O)[O-])o1`, the half-maximal activity concentration (AC50) is 0.125 µM (active) in the assay on Trypanosoma cruzi and 5.35 µM (active) in [12].

The record behind these values is ChEMBL document CHEMBL1201862, “PubChem BioAssay data set” (2004).
